Results: US20240158448A1, “MULTIVALENT NANO-'SELF' PEPTIDES AND USES THEREOF” (THE TRUSTEES OF THE UNIVERSITY OF PENNSYLVANIA, priority 2021, published 2024)
Entries after “also recorded” stand apart in the source; their conditions may differ. No end group written: not given here.

Tests used:
human THP-1 macrophages [1] = assay: In vitro phagocytosis assay: opsonized human RBCs engulfed by peptide-treated THP-1 macrophages; format: cell-based
Description: In vitro phagocytosis assay. Fresh human RBCs were washed twice with 50 mM EDTA (Thermo Fischer) in PBS (Gibco) then twice with 5% FBS in PBS. RBCs were opsonized with 20 μg/mL rabbit anti-human RBC antibody (Rockland) in 5% FBS for 1 hour at RT with shaking. For CD47 blocked RBCs, 5 μg/mL of mouse anti-human CD47 (B6H12; BD Biosciences) were added. Thereafter, RBCs were washed with PBS three times and stained with PKH26 dye (1:800 dilution in PBS; Sigma) for 1 hour at RT with shaking in the dark. RBCs were washed and resuspended in PBS.
THP-1 monocytes were PMA differentiated in RPMI for 48 hours. Macrophages were then washed with RPMI media three times. For SIRPα blocked THP-1 macrophages, 20 nM, 1 μM or 50 μM of the nano—Self peptides were incubated with the THP-1 macrophages for 1 hour at 37 ° C., 5% CO2 and 95% humidity. Those THP-Is were then washed with RPMI three times.
(§1) CO2 and 95% humidity. Macrophages were then washed with RPMI three times. Adherent and uninternalized RBCs were lysed with water for 30 seconds followed by immediate replacement with RPMI media. In order to distinguish remaining adherent RBCs from internalized RBCs, opsonized RBCs were stained with AlexaFluor 647 donkey anti-rabbit (binds to rabbit polyclonal opsonin on RBC; Invitrogen) IgG (1:1000) while unopsonized, CD47 blocked RBCs were stained with AlexaFluor 647 donkey anti-mouse (binds to mouse monoclonal anti-CD47 on RBCs; Invitrogen) IgG (1:1000) for 30 minutes. After washing, macrophages were fixed with 4% formaldehyde for 15 minutes at RT, washed with PBS, stained with 1 μg/mL Hoechst 33342, and then washed with PBS again. Fluorescence imaging was performed as described elsewhere herein and quantification was done using ImageJ. At least 200 cells were analyzed and experiments were repeated at least three times.

[2] = system: mouse bone marrow derived macrophages (BMDMs); assay: Phagocytosis of anti-TYRP1 opsonized B16F10 melanoma cells by mouse bone marrow derived macrophages; format: cell-based; details: 50 μM peptide
Description: B16F10 cells: Bone marrow cells were isolated from femurs and tibias of healthy C57BL6/J mice (The Jackson Laboratory) and cultured in 10-cm petri dishes containing IMDM (Gibco) supplemented with 10% v/v FBS, 1% v/v penicillin/streptomycin, and 1:10,000 macrophage colony stimulating factor cytokine (M-CSF; Biolegend) for 7 days at 37° C., 5% CO2 and 95% humidity. All animal experiments were performed according to protocols approved by the University of Pennsylvania's IACUC (protocol #805977 and #804455). The resulting mouse bone marrow derived macrophages (BMDMs) were washed with PBS containing Ca2^+/Mg2^+ (Gibco) then detached with 0.25% trypsin-EDTA (Gibco) and re-plated in 6-well tissue culture plates using IMDM+M-CSF for 24 hours.
Mouse melanoma B16F10 cells were washed with PBS containing Ca2-/Mg2- and then trypsinized with 0.05% trypsin-EDTA. After washing twice with PBS, the cells were labeled with 1:10,000 CFDA—SE (Thermo Fisher) in PBS for 10 minutes. B16F10 cells were opsonized with 10 μg/mL anti-TYRP1 (TA99; Bio X Cell) in PBS for 2 hours at 4° C.with occasional inverting. For CD47 blocked B16F10 cells, 5 μg/mL of […] were added. During the incubation time, the BMDMs were washed with media then stained with 1:2,000 CellTracker Deep Red (Thermo Fisher) in PBS with Ca2^+/Mg2^+ for 10 min. After washing, 50 μM of the nano—Self peptides were incubated with the BMDMs for 1 hour at 37° C., 5% CO2 and 95% humidity. Finally, BMDMs were washed twice with PBS and then twice with serum-free IMDM.
Without removing the supernatant, the opsonized melanoma cells were added to the labeled BMDMs at a ratio of 2:1 for 2 hours at 37° C., 5% CO2 and 95% humidity. During the last 15 minutes of the assay, the cells were Hoechst stained. The wells were washed with serum free IMDM then fixed with 4% formaldehyde for 15 minutes at RT, and PBS washed. Fluorescence imaging was performed using an Olympus IX71 with a digital EMCCD camera (Cascade 512B) and a 40×/0.6 NA objective. Quantification was done with ImageJ (NIH). At least 200 cells were analyzed and two-tailed student's t-test was used to determine statistical significance.

[3] = system: A549 (SIRPα positive) cells; assay: Confocal live staining with FAM-labeled peptides, A549 cells; format: binding, human; details: 100 uM and 1 μM FAM-labeled peptide
Description: SIRPα staining and confocal imaging. THP-1 monocytes were PMA-differentiated in RPMI 1640 for 24 hours. J774A.1, A549, and COS-1 cells were plated for 24 hours in media, respectively. Cells were washed with respective media prior to addition of fluorescent peptides. The peptides were left to incubate for 1 hour at 37 ° C., 5% CO2 and 95% humidity. For fixed cell staining, cells were incubated with 4% formaldehyde (Pierce) for 15 minutes prior to the addition of fluorescent peptides whereas for live cell staining, fixation was done after incubation with the FAM-labeled peptides. Nuclei were stained with 1 μg/mL Hoechst 33342 (Invitrogen). Cells were the washed PBS three times before analysis. Fluorescence imaging of fixed cells was performed using an Olympus IX71 with a digital EMCCD camera (Cascade 512B) and a 40×/0.6 NA objective. […] Quantification was done with ImageJ (NIH).
In order to visualize the uneven binding of the peptides to the surface of the macrophages, a live staining experiment of THP-1, J774A.1, and A549 cells, which all express SIRPα at different levels, was performed with FAM-labeled nS-wt and nS-X and analyzed by confocal microscopy (FIG. 11). […] Fluorescence of nS-X was consistently lower on THP-1 and J774A.1 macrophages relative to nS-wt. […]

THP-1 macrophages = assay: Phosphotyrosine (pTyr) staining of THP-1 macrophages; format: cell-based, human; details: 50 μM peptide
Description: Phosphotyrosine (pTyr) staining. THP-1 monocytes were PMA differentiated for 48 hours. Macrophages were washed with RPMI three times then incubated with 50 μM and 20 nM of either nS-F or nS-FF for 1 hour at 37° C., 5% CO2 and 95% humidity. The same conditions were replicated with the addition of 5 μg/mL anti-CD47. Excess peptide was washed with PBS then macrophages were fixed. […] After washing with PBS, the macrophages were incubated with 1:100 mouse anti-pTyr (Santa Cruz Biotechnology) for 1 hour at room temperature with shaking. Macrophages were washed with PBS then stained with AlexaFluor 488 donkey anti-mouse (1:1000; Invitrogen) and 1 μg/mL Hoechst 33342 for 1 hour with shaking then washed again. Fluorescence imaging and quantification was performed as described elsewhere herein.

human THP-1 macrophages [4] = assay: Residual adhesion of opsonized RBCs to macrophages; format: cell-based; details: 50 μM peptide
Text: To measure the residual adhesion of RBCs and distinguish it from internalization by macrophages, the engulfment assay with human RBCs used a secondary antibody against the opsonizing IgG, which allowed us to clearly see RBCs in contact with macrophages that are not internalized (FIG. 29C). The cells are also firmly attached to the macrophages because the culture dishes were rinsed after fixation and secondary antibody labeling. […] All of the RBCs in these samples are equally opsonized with IgG that binds Fc-receptors (FcR's) on macrophages, and so differences in measured adhesion implicate differences in the CD47—SIRPα interaction.

[5] = system: mouse J774A.1 macrophages; assay: In vitro phagocytosis assay: opsonized human RBCs engulfed by mouse J774A.1 macrophages; format: cell-based; details: saturating / 50 μM peptide
Description: as §1, with “In vitro phagocytosis assay. […] For CD47 blocked RBCs, 5 μg/mL of mouse anti-human CD47 (B6H12; BD Biosciences) were added. Thereafter, RBCs were washed with PBS three times and stained with PKH26 dye (1:800 dilution in PBS; Sigma) for 1 hour at RT with shaking in the dark. RBCs were washed and resuspended in PBS. J774A.1 macrophages were plated for 24 hours in RPMI. For SIRPα blocked J774A.1 macrophages, the same peptide blocking procedure as described elsewhere herein was used with the addition of a positive control using 5 μg/mL rat anti-mouse SIRPα ([…]; BD Biosciences). […] CO2” for “CO2”

soluble human SIRPα = biological target: T1, soluble human SIRPα (Homo sapiens, UniProt P78324); assay: Binding of biotinylated peptides on streptavidin beads to soluble SIRPα
T1 construct: Soluble human SIRPα fused with glutathione s-transferase (SIRPα-GST); GST (glutathione S-transferase); made in house
Text: SIRPα Expression and Purification. Soluble human SIRPα fused with glutathione s-transferase (SIRPα-GST) was expressed and purified as previously published (Tsai, et al., 2008, J. Cell Biol. 180:989-1003).
Peptide biotinylation: NHS-biotin (Thermo Fischer) was mixed with nS-wt and nS-V, respectively, following the manufacturer's protocol. The biotinylated peptides were dialyzed against PBS.
Streptavidin-beads binding: Streptavidin-coated polystyrene beads of 2.1 μm radius (Spherotech) were washed and blocked 3x in PBS plus 0.4% BSA. nS-wt-biotin or nS-V-biotin were incubated with the beads for 1 hour at room temperature with shaking. Beads were washed with PBS, then incubated with recombinant SIRPα for 1 hour in ice. Streptavidin beads were labeled with rabbit anti-streptavidin-FITC (Invitrogen) and SIRPα was stained with mouse anti-SIRPα-allophycocyanin (anti-SIRPα-APC; Invitrogen).

T1 sequence (P78324 31-373 limits assumed): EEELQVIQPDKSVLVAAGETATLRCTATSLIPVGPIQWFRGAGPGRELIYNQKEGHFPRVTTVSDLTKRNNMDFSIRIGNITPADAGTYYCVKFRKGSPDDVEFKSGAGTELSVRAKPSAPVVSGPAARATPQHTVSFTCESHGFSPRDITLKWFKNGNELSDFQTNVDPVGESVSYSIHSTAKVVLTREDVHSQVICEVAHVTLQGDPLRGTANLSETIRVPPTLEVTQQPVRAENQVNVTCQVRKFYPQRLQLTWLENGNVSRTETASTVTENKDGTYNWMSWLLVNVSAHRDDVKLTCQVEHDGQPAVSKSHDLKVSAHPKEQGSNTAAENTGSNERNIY

Sequence	effect on phagocytosis of opsonized RBCs (words) (human THP-1 macrophages [1]; saturating / 50 μM peptide)	effect on phagocytosis of opsonized RBCs (words) (human THP-1 macrophages [1]; saturating / 50 μM peptide, listed as nSX)	effect on phagocytosis of opsonized WT and SIRPα KO B16 cells [2]	binding to A549 cells [3]	effect on pTyr signal (THP-1 macrophages)	effect on pTyr signal (THP-1 macrophages; listed as nSX)	residual adhesion of opsonized RBCs to macrophages (human THP-1 macrophages [4])	effect on phagocytosis of opsonized RBCs (words) (human THP-1 macrophages [1]; 20 nM peptide)	increase of macrophage phagocytosis relative to nS-wt (human THP-1 macrophages [1]; saturating peptide)	effect on phagocytosis of opsonized RBCs (words) [5]	SIRPα binding to peptide-coated beads (soluble human SIRPα)
LETVEGTR (LETVEGTR-NH2) [nS-X, scrambled control peptide]	no effect is observed; also recorded: unaffected; also recorded: do not affect baseline engulfment of opsonized RBCs; also recorded: does not affect opsonization-driven eating of RBCs	do not have effects on phagocytosis	no effect; also recorded: does not affect opsonization-driven eating	fluorescence was not observed at either concentration	inhibition of phosphorylation is not observed	had no effect on pTyr	predominantly adherent RBCs	–	–	–	–
VTELFREG (VTELFREG-NH2) [nS-F, nano-Self peptide with Thr to Phe mutation]	significantly greater than any other peptide tested; also recorded: Maximum levels of phagocytic macrophages	–	Maximum levels of phagocytic macrophages	–	also suppressed pTyr	–	lowest amount of residual adhesion to macrophages	did not significantly change the amount of macrophage eating relative to anti-CD47 treatment; also recorded: only modest activity	roughly 25%	significantly greater than any other peptide tested	–
VTELVREG [nS-V, VTELVREG]	activity profiles in phagocytosis assays that are similar to the monovalent nS-F	–	–	–	–	–	–	did not significantly change the amount of macrophage eating relative to anti-CD47 treatment	–	–	fluorescence is only observed in the presence of biotinylated peptide
